Earlier results in patent US20060153842A1, “Immunosuppressive combination and its use in the treatment or prophylaxis or insulin-producing cell graft rejection” (priority 2001, published 2006).

Test system: islet allograft in male rats
Conditions: male rats hyperglycemic with streptozotocin; pre-administration the day before and the day of grafting

CCCCCCCCc1ccc(CCC(N)(CO)CO)cc1 [FTY720, 2-amino-2-[2-(4-octylphenyl)ethyl]propane-1,3-diol]
prolonged islet allograft survival: up to 20 days
